Tested on: cell lines from the Cancer Cell Line Encyclopedia (CCLE)
Test: High-throughput cell viability assay, CCLE cell line panel (n = 356)
Assay type: cell-based, human
Protocol: Cell lines were partitioned into sensitive and insensitive groups based on compound potency (IC50). […] All other cell lines were obtained from ATCC (American Type Culture Collection), DSMZ (Deutsche Sammlung von Mikroorganismen und Zellkulturen), and HSRRB (Health Science Research Resources Bank) and cultured in RPMI or Dulbecco's modified Eagle's medium plus 10% FBS (Invitrogen, Carlsbad, CA) at 37°C, 5% CO2.

Q: How did the Amax (42-MG-BA, TP53 MUT) turn out when `COc1cc2c(cc1OC(C)C)[C@H](c1ccc(Cl)cc1)N(c1ccc(N(C)C[C@H]3CC[C@H](N4CCNC(=O)C4)CC3)cc1)C(=O)C2` [NVP-CFC218] was run?
A: -30.94%

Q: And the sensitivity call (42-MG-BA, TP53 MUT)?
A: insensitive (Sensitivity call for each compound was applied according to a cut-off of 4 µM for IC50 and -50% for Amax)

Q: And the “share of sensitive cells expressing wild-type p53” value (43/47)?
A: 91.5%

Q: And the “share of p53 wild-type cell lines scored insensitive” value (57/100 p53 wild-type cell lines)?
A: 57%

Q: What about the “number of insensitive cell lines in wider cell line compendium” value (634 cell lines) of the same compound?
A: 557

Q: What about the “number of sensitive cell lines in wider cell line compendium” value (634 cell lines) of the same compound?
A: 77

Q: What about the Amax (697, TP53 WT) of the same compound?
A: -96.96%

Q: And the sensitivity call (697, TP53 WT)?
A: sensitive (Sensitivity call for each compound was applied according to a cut-off of 4 µM for IC50 and -50% for Amax)

Q: And the Amax (8505C, TP53 MUT)?
A: -28.72%

Q: And the sensitivity call (8505C, TP53 MUT)?
A: insensitive (Sensitivity call for each compound was applied according to a cut-off of 4 µM for IC50 and -50% for Amax)

Q: What about the Amax (AN3 CA, TP53 MUT) of the same compound?
A: 5.06%

Q: What about the sensitivity call (AN3 CA, TP53 MUT) of the same compound?
A: insensitive (Sensitivity call for each compound was applied according to a cut-off of 4 µM for IC50 and -50% for Amax)

Q: What about the Amax (B-CPAP, TP53 MUT) of the same compound?
A: 1.71%

Q: What about the sensitivity call (B-CPAP, TP53 MUT) of the same compound?
A: insensitive (Sensitivity call for each compound was applied according to a cut-off of 4 µM for IC50 and -50% for Amax)

Q: And the Amax (BEN, TP53 MUT)?
A: 0.13%

Q: What about the sensitivity call (BEN, TP53 MUT) of the same compound?
A: insensitive (Sensitivity call for each compound was applied according to a cut-off of 4 µM for IC50 and -50% for Amax)

Q: And the Amax (BFTC-905, TP53 MUT)?
A: 0.25%

Q: And the sensitivity call (BFTC-905, TP53 MUT)?
A: insensitive (Sensitivity call for each compound was applied according to a cut-off of 4 µM for IC50 and -50% for Amax)

Q: And the Amax (BFTC-909, TP53 MUT)?
A: 1.37%

Q: And the sensitivity call (BFTC-909, TP53 MUT)?
A: insensitive (Sensitivity call for each compound was applied according to a cut-off of 4 µM for IC50 and -50% for Amax)

Q: And the Amax (BT-20, TP53 MUT)?
A: 1.40%

Q: And the sensitivity call (BT-20, TP53 MUT)?
A: insensitive (Sensitivity call for each compound was applied according to a cut-off of 4 µM for IC50 and -50% for Amax)

Q: And the Amax (BT-474, TP53 MUT)?
A: -3.44%

Q: And the sensitivity call (BT-474, TP53 MUT)?
A: insensitive (Sensitivity call for each compound was applied according to a cut-off of 4 µM for IC50 and -50% for Amax)

Q: And the Amax (CAL-12T, TP53 MUT)?
A: -18.61%

Q: And the sensitivity call (CAL-12T, TP53 MUT)?
A: insensitive (Sensitivity call for each compound was applied according to a cut-off of 4 µM for IC50 and -50% for Amax)

Q: And the Amax (CAL-78, TP53 MUT)?
A: -1.01%

Q: What about the sensitivity call (CAL-78, TP53 MUT) of the same compound?
A: insensitive (Sensitivity call for each compound was applied according to a cut-off of 4 µM for IC50 and -50% for Amax)

Q: What about the Amax (CHL-1, TP53 MUT) of the same compound?
A: -46.61%

Q: And the sensitivity call (CHL-1, TP53 MUT)?
A: insensitive (Sensitivity call for each compound was applied according to a cut-off of 4 µM for IC50 and -50% for Amax)

Q: What about the Amax (CHP-212, TP53 WT) of the same compound?
A: -71.98%

Q: What about the sensitivity call (CHP-212, TP53 WT) of the same compound?
A: sensitive (Sensitivity call for each compound was applied according to a cut-off of 4 µM for IC50 and -50% for Amax)

Q: What about the Amax (COLO 205, TP53 MUT) of the same compound?
A: -1.62%

Q: And the sensitivity call (COLO 205, TP53 MUT)?
A: insensitive (Sensitivity call for each compound was applied according to a cut-off of 4 µM for IC50 and -50% for Amax)

Q: And the Amax (COLO 792, TP53 WT)?
A: 2.74%

Q: And the sensitivity call (COLO 792, TP53 WT)?
A: insensitive (Sensitivity call for each compound was applied according to a cut-off of 4 µM for IC50 and -50% for Amax)

Q: And the Amax (COR-L23, TP53 WT)?
A: -1.38%

Q: And the sensitivity call (COR-L23, TP53 WT)?
A: insensitive (Sensitivity call for each compound was applied according to a cut-off of 4 µM for IC50 and -50% for Amax)

Q: What about the Amax (Capan-1, TP53 MUT) of the same compound?
A: 30.74%

Q: What about the sensitivity call (Capan-1, TP53 MUT) of the same compound?
A: insensitive (Sensitivity call for each compound was applied according to a cut-off of 4 µM for IC50 and -50% for Amax)

Q: What about the Amax (ChaGo-K-1, TP53 MUT) of the same compound?
A: -18.45%

Q: And the sensitivity call (ChaGo-K-1, TP53 MUT)?
A: insensitive (Sensitivity call for each compound was applied according to a cut-off of 4 µM for IC50 and -50% for Amax)

Q: What about the Amax (DMS 53, TP53 MUT) of the same compound?
A: 9.69%

Q: And the sensitivity call (DMS 53, TP53 MUT)?
A: insensitive (Sensitivity call for each compound was applied according to a cut-off of 4 µM for IC50 and -50% for Amax)

Q: And the Amax (DU 145, TP53 MUT)?
A: -4.91%

Q: And the sensitivity call (DU 145, TP53 MUT)?
A: insensitive (Sensitivity call for each compound was applied according to a cut-off of 4 µM for IC50 and -50% for Amax)

Q: What about the Amax (Daoy, TP53 MUT) of the same compound?
A: 2.94%

Q: What about the sensitivity call (Daoy, TP53 MUT) of the same compound?
A: insensitive (Sensitivity call for each compound was applied according to a cut-off of 4 µM for IC50 and -50% for Amax)

Q: What about the Amax (EB2, TP53 MUT) of the same compound?
A: -5.89%

Q: What about the sensitivity call (EB2, TP53 MUT) of the same compound?
A: insensitive (Sensitivity call for each compound was applied according to a cut-off of 4 µM for IC50 and -50% for Amax)

Q: And the Amax (EFE-184, TP53 MUT)?
A: -2.73%

Q: And the sensitivity call (EFE-184, TP53 MUT)?
A: insensitive (Sensitivity call for each compound was applied according to a cut-off of 4 µM for IC50 and -50% for Amax)

Q: What about the Amax (EFO-21, TP53 MUT) of the same compound?
A: 5.85%

Q: What about the sensitivity call (EFO-21, TP53 MUT) of the same compound?
A: insensitive (Sensitivity call for each compound was applied according to a cut-off of 4 µM for IC50 and -50% for Amax)

Q: What about the Amax (FU-OV-1, TP53 MUT) of the same compound?
A: -2.32%

Q: What about the sensitivity call (FU-OV-1, TP53 MUT) of the same compound?
A: insensitive (Sensitivity call for each compound was applied according to a cut-off of 4 µM for IC50 and -50% for Amax)

Q: What about the Amax (FaDu, TP53 MUT) of the same compound?
A: 8.93%

Q: What about the sensitivity call (FaDu, TP53 MUT) of the same compound?
A: insensitive (Sensitivity call for each compound was applied according to a cut-off of 4 µM for IC50 and -50% for Amax)

Q: What about the Amax (G-401, TP53 WT) of the same compound?
A: -87.03%

Q: What about the sensitivity call (G-401, TP53 WT) of the same compound?
A: sensitive (Sensitivity call for each compound was applied according to a cut-off of 4 µM for IC50 and -50% for Amax)

Q: What about the Amax (GI-1, TP53 MUT) of the same compound?
A: -2.97%

Q: And the sensitivity call (GI-1, TP53 MUT)?
A: insensitive (Sensitivity call for each compound was applied according to a cut-off of 4 µM for IC50 and -50% for Amax)

Q: And the Amax (GMS-10, TP53 MUT)?
A: -4.00%

Q: What about the sensitivity call (GMS-10, TP53 MUT) of the same compound?
A: insensitive (Sensitivity call for each compound was applied according to a cut-off of 4 µM for IC50 and -50% for Amax)

Q: And the Amax (HCC1806, TP53 MUT)?
A: 1.11%

Q: What about the sensitivity call (HCC1806, TP53 MUT) of the same compound?
A: insensitive (Sensitivity call for each compound was applied according to a cut-off of 4 µM for IC50 and -50% for Amax)

Q: What about the Amax (HCC1954, TP53 MUT) of the same compound?
A: -0.81%

Q: And the sensitivity call (HCC1954, TP53 MUT)?
A: insensitive (Sensitivity call for each compound was applied according to a cut-off of 4 µM for IC50 and -50% for Amax)

Q: And the Amax (HCC-15, TP53 MUT)?
A: -21.49%

Q: And the sensitivity call (HCC-15, TP53 MUT)?
A: insensitive (Sensitivity call for each compound was applied according to a cut-off of 4 µM for IC50 and -50% for Amax)

Q: And the Amax (HCT-15, TP53 MUT)?
A: -20.00%

Q: What about the sensitivity call (HCT-15, TP53 MUT) of the same compound?
A: insensitive (Sensitivity call for each compound was applied according to a cut-off of 4 µM for IC50 and -50% for Amax)

Q: And the Amax (HLF, TP53 MUT)?
A: -3.09%

Q: And the sensitivity call (HLF, TP53 MUT)?
A: insensitive (Sensitivity call for each compound was applied according to a cut-off of 4 µM for IC50 and -50% for Amax)

Q: And the Amax (HMC-1-8, TP53 MUT)?
A: -1.67%

Q: What about the sensitivity call (HMC-1-8, TP53 MUT) of the same compound?
A: insensitive (Sensitivity call for each compound was applied according to a cut-off of 4 µM for IC50 and -50% for Amax)

Q: And the Amax (Hep G2, TP53 WT)?
A: -62.73%

Q: And the sensitivity call (Hep G2, TP53 WT)?
A: sensitive (Sensitivity call for each compound was applied according to a cut-off of 4 µM for IC50 and -50% for Amax)

Q: What about the IC50 (Homo sapiens, 8-MG-BA, TP53 MUT) of the same compound?
A: > 8 µM

Q: What about the IC50 (Homo sapiens, 42-MG-BA, TP53 MUT) of the same compound?
A: > 8 µM

Q: And the IC50 (Homo sapiens, 697, TP53 WT)?
A: 1.59 µM

Q: And the IC50 (Homo sapiens, 769-P, TP53 WT)?
A: 3.01 µM

Q: And the IC50 (Homo sapiens, 786-0, 786-O, TP53 MUT)?
A: > 8 µM

Q: And the IC50 (Homo sapiens, 5637, TP53 MUT)?
A: > 8 µM

Q: What about the IC50 (Homo sapiens, 8505C, TP53 MUT) of the same compound?
A: > 8 µM
